Results from patent US20170064966A1, “ANTIMICROBIAL COMPOSITIONS AND METHODS AND USES THEREOF” (BAR ILAN UNIVERSITY, priority 2015, published 2017).
Where two headings read alike, the source gives them in different places. Non-standard residues stand in square brackets, D forms with d. No end group written: not given here.

Columns and labels:
[1] = system: PA biofilm formation; assay: Static biofilm model with N′-loop derived peptides (crystal violet); conditions: for anti-biofilm activity / inhibition of PA biofilm formation: peptides 1-6 at 0.01, 0.05 and 0.1 mM, FIG. 10B
Experimental: The static biofilm model was used to assess the ability of N′-loop derived peptides to reduce PA biofilm formation. Briefly, PA wild type bacteria were grown over night in M9 medium (20 mM NH4Cl; 12 mM Na2HPO4; 22 mM KH2PO4; 8.6 mM NaCl; 1 mM MgSO4; 1 mM CaCl2; 11 mM Dextrose) at 37 C. Following growth cells were diluted to a final concentration of 5*10^7 in M9 medium contacting 1/10 the phosphate concentration. 100 microliter of the bacterial suspension was transferred to each well of 96 wells plate. The six tested peptides were added at different concentrations 0.01, 0.05 and 0.1 mM. The plate was then incubated for 24 h at 37° C. to allow biofilm development. After incubation the medium was removed and the wells were carefully washed twice with sterile ddsH2O to remove planktonic bacteria. Next 150 microliter of 1% crystal violet (w/v) was added to each well in order to stain the biofilm cells. The stain was allowed to incubate for 15 min after which the wells were washed again with ddsH2O. The stain attached to the biofilm was then extracted by adding 200 microliter ethanol (95%). The biofilm biomass was quantified by reading the absorbance at 595nm using an ELISA plate reader.

[2] = system: P. aeruginosa strains PAO1, PA14 and clinical isolate DK2; assay: Flow cell biofilm experiment in the presence of inhibitory peptide
Experimental: Bacterial strains (Pseudomonas aeruginosa strains PA14 and DK2) containing the plasmid pUCP-GFP inserted to bacterial cells by electroporation (pUCP18 that constitutionally expresses the GFP under the lac promoter), were inoculated from −80° C. stock into 2 mL TSB containing 300 μg/mL Carb (to maintain the pUCP-GFP plasmid) and grown overnight at 37° C. with agitation. The next day, bacteria were diluted to 0.05 OD (595 nm) in 1% TSB containing the antibiotics and loaded onto 6 channel 1μ-Slide I^0.4 Luer uncoated (Ibidi). The slide was connected to a flow cell containing fresh 1% TSB with 0.05 Mm, 0.1 mM peptides or without peptides. Fresh media flowed through the slide by a pump at 10 mL/h (2 rpm). Bacteria were grown in the slide for 48 hours at 37° C. After 48 hours, 3 representative pictures from the beginning and the middle of the slide, were taken using SP8 confocal HyD microscope (Leica). Pictures were analyzed by Imaris software (version 7.2.2).

[3] = format: binding; conditions: P^32-labeled phosphate, pH 7.5, FIG. 3C
[4] = measured under similar pH conditions, ref (18); read-out: phosphate binding (KD) reported for PstS orthologs; cited from earlier work

Molecule: AIDPALPE
- anti-biofilm activity / inhibition of PA biofilm formation [1]: inhibits most effectively biofilm formation
- anti-biofilm activity / inhibition of PA biofilm formation ([1]; listed as peptide 3): most effective peptide

Molecule: modified peptide-3: enantiomer of peptide-3 having the N-terminal Ala and C-terminal Glu residues in the D-form (SEQ ID NO. 56) ([dA]IDPALP[dE])
- inhibition of PA biofilm formation ([1]; 0.1 millimolar modified peptide 3, FIG. 10C): efficiently inhibited biofilm formation
- biofilm formation (biovolume) ([2]; 0.1 mM in media, 48 h, strains PAO1, PA14, DK2, FIG. 11A): significantly reduces the biofilm formation
- biofilm formation phenotype, confocal microscope images ([2]; strains PAO1, PA14, DK2, 48 h, FIG. 11B): changes the biofilm formation phenotype of all PA strains examined

B1: wild-type PstS: periplasmic phosphate-binding subunit of the P. aeruginosa Pst transporter, purified from E. coli (protein)
chain: MKLKRLMAALTFVAAGVGAASAVAAIDPALPEYQKASGVSGNLSSVGSDTLANLMTMWAEEYKRLYPNVNIQIQAAGSSTAPPALTEGTANLGPMSRKMKDVELQAFEQKYGYKPTAVPVAVDALAIFVHKDNPIKGLTMQQVDAIFSATRLCGSKQDVKTWGDLGLTGDWAKKPVQLFGRNSVSGTYGYFKEEALCKGDFRPNVNEQPGSASVVQSVSQSLNGIGYSGIGYKTASVKTVALAKKEGAAFVEDNEQNALNGTYPLSRFLYVYVNKAPNKPLDPLEAQFLKLVLSKTGQQVVVKDGYIPLPAKVAEKAIKELGL
modifications: P.aeruginosa PstS - accession number NP_254056.1
- Kd ([3]; read-out: dissociation constant (KD) for PO4): 840 ± 120 nM

B2: S96E (protein)
chain: MKLKRLMAALTFVAAGVGAASAVAAIDPALPEYQKASGVSGNLSSVGSDTLANLMTMWAEEYKRLYPNVNIQIQAAGSSTAPPALTEGTANLGPMERKMKDVELQAFEQKYGYKPTAVPVAVDALAIFVHKDNPIKGLTMQQVDAIFSATRLCGSKQDVKTWGDLGLTGDWAKKPVQLFGRNSVSGTYGYFKEEALCKGDFRPNVNEQPGSASVVQSVSQSLNGIGYSGIGYKTASVKTVALAKKEGAAFVEDNEQNALNGTYPLSRFLYVYVNKAPNKPLDPLEAQFLKLVLSKTGQQVVVKDGYIPLPAKVAEKAIKELGL
modifications: The S96E PstS mutant
- dissociation constant (KD) for PO4 [3]: very weak or no binding

B3: E. coli PstS: PstS ortholog from E. coli, literature value (18) (protein, UniProt P0AG82 26-346, looked up)
Phosphate-binding protein PstS: EASLTGAGATFPAPVYAKWADTYQKETGNKVNYQGIGSSGGVKQIIANTVDFGASDAPLSDEKLAQEGLFQFPTVIGGVVLAVNIPGLKSGELVLDGKTLGDIYLGKIKKWDDEAIAKLNPGLKLPSQNIAVVRRADGSGTSFVFTSYLAKVNEEWKNNVGTGSTVKWPIGLGGKGNDGIAAFVQRLPGAIGYVEYAYAKQNNLAYTKLISADGKPVSPTEENFANAAKGADWSKTFAQDLTNQKGEDAWPITSTTFILIHKDQKKPEQGTEVLKFFDWAYKTGAKQANDLDYASLPDSVVEQVRAAWKTNIKDSSGKPLY
- Kd [4]: ~3000 nM
